Remaining binding data for three compounds are collected here from patent US11208412B2 (DAEGU-GYEONGBUK MEDICAL INNOVATION FOUNDATION, priority 2017, dated 2021).

Common to all, as to experiment: Kinase selectivity, DiscoverX scanMAX Kinase assay panel (% control)
Common to all, as to type: binding

Experiment [1] addresses T1, kinases of the scanMAX Kinase assay panel (Homo sapiens, UniProt Q6P3R8).
T1 construct: purchased DiscoverX Co. (contract measurement) scanMAX Kinase assay panel
T1 sequence (Q6P3R8 1-708): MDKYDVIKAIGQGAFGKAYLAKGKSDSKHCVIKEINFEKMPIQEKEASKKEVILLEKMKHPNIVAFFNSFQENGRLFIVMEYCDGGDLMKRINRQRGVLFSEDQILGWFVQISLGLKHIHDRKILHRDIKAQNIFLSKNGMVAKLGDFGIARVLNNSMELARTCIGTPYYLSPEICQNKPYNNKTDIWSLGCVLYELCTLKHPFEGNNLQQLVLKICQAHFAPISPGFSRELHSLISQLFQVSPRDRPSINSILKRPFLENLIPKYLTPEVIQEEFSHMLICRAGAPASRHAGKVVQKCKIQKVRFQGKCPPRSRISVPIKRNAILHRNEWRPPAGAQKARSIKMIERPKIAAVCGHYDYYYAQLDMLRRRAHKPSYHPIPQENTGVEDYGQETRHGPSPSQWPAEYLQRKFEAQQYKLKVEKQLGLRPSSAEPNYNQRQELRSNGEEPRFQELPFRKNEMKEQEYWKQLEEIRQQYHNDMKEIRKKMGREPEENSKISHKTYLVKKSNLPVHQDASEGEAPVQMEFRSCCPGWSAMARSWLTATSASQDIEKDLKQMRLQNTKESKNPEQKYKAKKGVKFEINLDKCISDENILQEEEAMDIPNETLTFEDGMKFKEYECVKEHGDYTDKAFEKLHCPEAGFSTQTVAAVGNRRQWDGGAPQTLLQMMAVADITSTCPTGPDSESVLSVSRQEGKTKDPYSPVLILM
Particulars: NEK5; 1 uM. The method, boiled down: (§1)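 Compounds were tested at 1 uM (in DMSO) against each panel kinase. % control was calculated as (compound − positive control)/(negative control − positive control)×100, where the positive control gives 0% and DMSO gives 100%. Activity toward a kinase was called at % control <35%.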

Experiment [2] has as its target T2, kinases of the scanMAX Kinase assay panel (Homo sapiens, UniProt O75747).
T2 construct: purchased DiscoverX Co. (contract measurement) scanMAX Kinase assay panel
T2 sequence (O75747 1-1486): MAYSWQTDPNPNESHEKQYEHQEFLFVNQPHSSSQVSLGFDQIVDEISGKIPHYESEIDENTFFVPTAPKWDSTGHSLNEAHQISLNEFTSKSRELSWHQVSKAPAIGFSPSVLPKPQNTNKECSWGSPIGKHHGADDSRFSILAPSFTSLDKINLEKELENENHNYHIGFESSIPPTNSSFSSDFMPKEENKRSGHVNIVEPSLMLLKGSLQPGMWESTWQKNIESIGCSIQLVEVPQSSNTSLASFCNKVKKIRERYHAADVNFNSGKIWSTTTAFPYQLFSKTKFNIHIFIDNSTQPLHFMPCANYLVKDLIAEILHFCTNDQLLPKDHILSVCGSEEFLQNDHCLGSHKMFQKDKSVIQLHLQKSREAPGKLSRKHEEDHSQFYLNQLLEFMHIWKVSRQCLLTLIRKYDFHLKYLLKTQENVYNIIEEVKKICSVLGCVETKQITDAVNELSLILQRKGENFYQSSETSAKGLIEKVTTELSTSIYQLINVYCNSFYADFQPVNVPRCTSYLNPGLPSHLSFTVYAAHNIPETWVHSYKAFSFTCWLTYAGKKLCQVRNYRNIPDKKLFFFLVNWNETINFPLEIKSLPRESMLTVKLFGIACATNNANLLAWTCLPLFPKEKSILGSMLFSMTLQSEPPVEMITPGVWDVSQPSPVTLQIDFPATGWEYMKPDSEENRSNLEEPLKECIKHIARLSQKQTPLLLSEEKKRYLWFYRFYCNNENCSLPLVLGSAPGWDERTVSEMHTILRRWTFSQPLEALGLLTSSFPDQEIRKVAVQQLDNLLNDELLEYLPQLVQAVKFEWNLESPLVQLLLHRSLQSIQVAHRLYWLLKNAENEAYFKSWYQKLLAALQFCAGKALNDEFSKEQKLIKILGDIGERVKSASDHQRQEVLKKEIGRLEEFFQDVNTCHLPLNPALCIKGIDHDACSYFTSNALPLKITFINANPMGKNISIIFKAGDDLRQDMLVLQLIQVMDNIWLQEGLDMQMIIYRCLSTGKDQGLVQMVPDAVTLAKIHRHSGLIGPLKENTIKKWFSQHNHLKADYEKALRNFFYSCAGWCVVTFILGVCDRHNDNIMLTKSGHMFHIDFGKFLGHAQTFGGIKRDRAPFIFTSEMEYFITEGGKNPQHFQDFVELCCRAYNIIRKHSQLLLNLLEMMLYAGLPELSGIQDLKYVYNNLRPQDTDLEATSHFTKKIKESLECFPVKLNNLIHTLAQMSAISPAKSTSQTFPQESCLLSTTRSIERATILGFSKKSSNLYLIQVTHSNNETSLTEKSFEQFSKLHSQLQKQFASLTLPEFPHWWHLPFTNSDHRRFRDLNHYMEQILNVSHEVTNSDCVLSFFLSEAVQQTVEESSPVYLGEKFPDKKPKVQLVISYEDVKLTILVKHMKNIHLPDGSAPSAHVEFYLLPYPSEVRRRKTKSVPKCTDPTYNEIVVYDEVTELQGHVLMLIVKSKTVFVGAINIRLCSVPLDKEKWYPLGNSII
The settings on record: PIK3C2G; 1 uM. In a few lines:
as §1

In experiment [3] the target is T3, kinases of the scanMAX Kinase assay panel (Homo sapiens, UniProt P22607).
T3 construct: purchased DiscoverX Co. (contract measurement) scanMAX Kinase assay panel
T3 sequence (P22607 23-806): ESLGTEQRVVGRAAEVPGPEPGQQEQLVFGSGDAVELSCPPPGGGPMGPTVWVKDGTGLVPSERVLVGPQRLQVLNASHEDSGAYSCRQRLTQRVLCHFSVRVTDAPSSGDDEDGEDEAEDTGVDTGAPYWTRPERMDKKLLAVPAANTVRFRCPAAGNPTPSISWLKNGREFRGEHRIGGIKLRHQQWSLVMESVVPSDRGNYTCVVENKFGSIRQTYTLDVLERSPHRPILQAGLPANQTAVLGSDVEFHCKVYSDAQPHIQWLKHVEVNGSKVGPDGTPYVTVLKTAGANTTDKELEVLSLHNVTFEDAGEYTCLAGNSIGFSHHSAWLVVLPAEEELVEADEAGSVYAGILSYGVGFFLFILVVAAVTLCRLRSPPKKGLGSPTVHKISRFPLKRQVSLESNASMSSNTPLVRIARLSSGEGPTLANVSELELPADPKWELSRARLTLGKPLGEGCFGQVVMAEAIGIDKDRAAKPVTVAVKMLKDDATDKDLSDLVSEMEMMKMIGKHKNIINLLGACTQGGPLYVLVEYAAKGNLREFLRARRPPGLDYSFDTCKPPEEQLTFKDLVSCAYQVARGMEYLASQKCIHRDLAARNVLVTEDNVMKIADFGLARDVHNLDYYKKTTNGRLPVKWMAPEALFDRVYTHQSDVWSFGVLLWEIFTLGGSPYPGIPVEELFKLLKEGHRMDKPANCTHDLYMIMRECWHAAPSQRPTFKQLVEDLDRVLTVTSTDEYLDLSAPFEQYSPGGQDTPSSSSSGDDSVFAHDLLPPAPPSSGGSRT
The settings on record: FGFR3; 1 uM. The method, boiled down: as §1

The target of experiment [4] is T4, kinases of the scanMAX Kinase assay panel (Homo sapiens, UniProt P54756).
T4 construct: purchased DiscoverX Co. (contract measurement) scanMAX Kinase assay panel
T4 sequence (P54756 25-1037): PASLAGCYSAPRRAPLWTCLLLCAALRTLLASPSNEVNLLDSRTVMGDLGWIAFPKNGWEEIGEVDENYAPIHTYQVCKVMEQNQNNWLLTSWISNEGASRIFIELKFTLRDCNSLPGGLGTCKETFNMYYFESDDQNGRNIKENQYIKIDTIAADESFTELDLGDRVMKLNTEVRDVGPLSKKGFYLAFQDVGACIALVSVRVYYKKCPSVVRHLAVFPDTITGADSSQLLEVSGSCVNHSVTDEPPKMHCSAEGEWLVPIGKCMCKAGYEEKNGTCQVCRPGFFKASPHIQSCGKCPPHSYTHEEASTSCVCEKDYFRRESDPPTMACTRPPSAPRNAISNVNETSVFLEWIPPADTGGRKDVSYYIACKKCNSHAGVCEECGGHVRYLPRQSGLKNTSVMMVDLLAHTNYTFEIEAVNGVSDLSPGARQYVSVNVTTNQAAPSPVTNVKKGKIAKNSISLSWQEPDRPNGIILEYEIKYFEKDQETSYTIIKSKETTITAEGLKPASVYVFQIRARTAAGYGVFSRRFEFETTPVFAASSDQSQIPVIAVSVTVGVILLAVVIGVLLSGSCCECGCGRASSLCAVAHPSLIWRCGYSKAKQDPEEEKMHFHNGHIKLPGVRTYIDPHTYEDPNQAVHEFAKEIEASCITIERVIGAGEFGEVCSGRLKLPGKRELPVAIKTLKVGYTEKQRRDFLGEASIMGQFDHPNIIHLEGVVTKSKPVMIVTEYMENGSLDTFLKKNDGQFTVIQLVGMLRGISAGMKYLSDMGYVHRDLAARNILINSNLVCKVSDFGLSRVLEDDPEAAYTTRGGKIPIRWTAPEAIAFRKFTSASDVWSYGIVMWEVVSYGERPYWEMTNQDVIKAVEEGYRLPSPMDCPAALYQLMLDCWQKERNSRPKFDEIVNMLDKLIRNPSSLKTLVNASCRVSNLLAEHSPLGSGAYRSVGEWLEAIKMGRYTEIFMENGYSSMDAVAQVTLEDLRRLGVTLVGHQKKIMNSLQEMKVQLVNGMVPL
Particulars: EPHA5; 1 uM. The method, boiled down:
as §1

Experiment [5] concerns the target T5, kinases of the scanMAX Kinase assay panel (Homo sapiens, UniProt Q00535).
T5 construct: purchased DiscoverX Co. (contract measurement) scanMAX Kinase assay panel
The settings on record: CDK5; 1 uM. In a few lines: as §1

T5 sequence (Q00535 whole entry): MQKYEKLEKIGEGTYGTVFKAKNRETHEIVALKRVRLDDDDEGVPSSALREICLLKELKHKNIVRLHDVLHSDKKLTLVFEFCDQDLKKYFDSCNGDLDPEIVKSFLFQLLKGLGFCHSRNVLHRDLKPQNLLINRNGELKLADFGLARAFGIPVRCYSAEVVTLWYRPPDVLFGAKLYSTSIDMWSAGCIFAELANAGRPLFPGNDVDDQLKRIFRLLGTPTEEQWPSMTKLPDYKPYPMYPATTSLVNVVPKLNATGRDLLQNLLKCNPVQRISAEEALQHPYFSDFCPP

`CNc1nc(Nc2ccc(C(=O)N3CCOCC3)cc2OC)nc2[nH]cc(C#N)c12` [Example 1, 2-((2-methoxy-4-(morpholine-4-carbonyl)phenyl)amino)-4-(methylamino)-7H-pyrrolo[2,3-d]pyrimidine-5-carbonitrile]: the remaining binding at 1 µM in experiment [1] was determined as 98%; in experiment [2] it was 99%; in experiment [3], 100%; in experiment [4] it was 87%; in experiment [5], 96%.
Taken in the same sequence, the figures for `CC1(Nc2nc(Nc3cnn([C@H]4CCN(C5COC5)C[C@@H]4F)c3Cl)nc3[nH]cc(C#N)c23)CC1` [Example 52, 2-((5-chloro-1-((3S,4S)-3-fluoro-1-(oxetane-3-yl)piperidine-4-yl)-1H-pyrazole-4-yl)amino)((1-methylcyclopropyl)amino)-7H-pyrrolo[2,3-d]pyrimidine-5-carbonitrile] were 99%, 72%, 9.8%, 79% and 63%.
Taken in the same sequence, the figures for `CCNc1nc(Nc2ccc(C(=O)N3CCC(N4CCOCC4)CC3)cc2OC)nc2[nH]cc(C(F)(F)F)c12` [Example 104, (4-((4-(ethylamino)-5-(trifluoromethyl)-7H-pyrrolo[2,3-d]pyrimidine-2-yl)amino)-3-methoxyphenyl)(4-morpholinopiperidine-1-yl)methanone] were 95%, 86%, 100%, 100% and 100%.
